Patent US6346514B1, “Pharmaceutical lysine-containing polypeptide compositions and methods of use thereof” (priority 1991, dated 2002)

Key:
trypsinized thymocytes = experiment: Restoration of rosette-forming capacity (E-RFC) of trypsinized thymocytes; assay type: cell-based, guinea-pig; settings: concentration 10 microg/ml (most active of 1, 10, 100)
Method: Model: A. This work was designed to study the restoration of superficial receptors on lymphocytes after proteolytic digestion or after severe secondary immunodeficiency. Thymocytes obtained from guinea-pig were trypsinized and then their rosette-forming capacity with rabbit erythrocytes (E-RFC) was evaluated. The cells were incubated with the peptide in concentrations 1, 10 and 100 microg/ml. There were two controls—intact thymocytes (not trypsinized) and trypsinized thymocytes not incubated with the peptide.

posthemorrhagic anemia = experiment: Erythropoietic effect in posthemorrhagic anemia; assay type: in vivo, mice
Method: This test was designed to study posthemorrhagic anemia (acute blood loss caused by taking blood from retroorbital sinus), and hemolytic anemia induced by phenylhydrazine hydrochloride (120 mg active ingredients/kg 30 Balb/c-mice and 30 CBA-mice). HM897 was injected intraperitoneally in doses of 100 and 150 microg per kg, 3 hours and 1 day after intervention modelling anemia, for 5 days. Tester parameters: RBC, leukocytes, reticulocytes, Hb, Hct

[1] = tested on: methicillin-resistant S. aureus; experiment: Survival of mice inoculated with 10xLD50 S. aureus, HM897 pretreatment with or without Ampicillin; assay type: in vivo
Method: As in Example 8, animals were inoculated intraperitoneally with 10×LD50 of a methicillin-resistant S. aureus suspended in brain-heart infusion broth containing 5 percent mucin. Different treatments were administered s.c., i.p., or p.o., one hour later and deaths occurring during the subsequent three days were recorded. If significant prevention of mortality (>50 percent survival) was observed, the minimum effective dose (MED) was determined.
Two control experiments were conducted. HM897 was administered as a pretreatment prior to microbial inoculation, and saline was administered i.p. The number of survivors at 72 hours was determined. […] The number of survivors at 72 hours was recorded.
Survival statistics were determined over the periods of 12, 24, 36, 48, and 72 hours. […] Survival statistics were determined over periods of 12, […], 36, 48, and 72 hours. The method of conducting the experiment is illustrated in FIG. 5.

[2] = tested on: lymphoid cells differentiation; experiment: Effects in thymectomized guinea pigs; assay type: in vivo; settings: thymectomized animals; 1 microg per kg i.m. daily for 10 days; 15th day
Method: Model: Thymectomy (removal of thymus): 30 mongrel male guinea pigs. Treatment: i.m. single daily 1 microg HM897 per kg for 10 days. Treatment of controls: normal saline 0.5 ml i.m. single daily for 10 days (there were two controls—thymectomized and sham-operated). Parameters were determined on the 15th day after onset of the treatment. Tested parameters: clinical blood examination, “active” T-lymphocytes and total T-lymphocytes (E-RFC), B-lymphocytes (EAC-RFC) were measured in blood, thymus, lymph nodes, spleen and red bone marrow.

[3] = tested on: hemodepression induced by 5-fluorouracil; experiment: Hemostimulating effect in 5-fluorouracil-induced hemodepression; assay type: in vivo, CBA-mice
Method: The test was designed to study hemodepression induced by 5-fluorouracil injected i.p. in a dose 175 mg per kg (172 male CBA-mice). Treatment: peptide HM897 was administered i.p. starting from 4th day after 5-FU injection in doses 0.00001, 0.001, 0.01, 1.0 mg/kg for 5 days. Treatment of controls: normal saline i.p. for 5 days. Tested parameters: peripheral blood count and bone marrow differential count.

[4] = 12 HOURS after inoculation, HM897 10 mcg/kg
[5] = 12 HOURS after inoculation, HM897 100 mcg/kg
[6] = 12 HOURS after inoculation, HM897 1000 mcg/kg
[7] = 24 HOURS after inoculation, HM897 10 mcg/kg
[8] = 24 HOURS after inoculation, HM897 100 mcg/kg
[9] = 24 HOURS after inoculation, HM897 1000 mcg/kg
[10] = 36 HOURS after inoculation, HM897 10 mcg/kg
[11] = 36 HOURS after inoculation, HM897 100 mcg/kg
[12] = 36 HOURS after inoculation, HM897 1000 mcg/kg
[13] = 48 HOURS after inoculation, HM897 10 mcg/kg
[14] = 48 HOURS after inoculation, HM897 100 mcg/kg
[15] = 48 HOURS after inoculation, HM897 1000 mcg/kg
[16] = 72 HOURS after inoculation, HM897 10 mcg/kg
[17] = 72 HOURS after inoculation, HM897 100 mcg/kg
[18] = 72 HOURS after inoculation, HM897 1000 mcg/kg

Thr-Ala-Glu-Glu-Lys (TAEEK) [HM897] was tested, and the “biological activity (percentage of rosette-forming capacity restoration)” value (trypsinized thymocytes) was 78/9, the “Hb level and plasma/formed elements ratio restoration” value (posthemorrhagic anemia) was “more rapid” and the most effective dose (posthemorrhagic anemia; doses 100 and 150 i.p.) was 0.15 mg/kg. The RBC count (posthemorrhagic anemia; on the 6th day after administration) was 7.1 mln/ml, the Deaths [1, 4] was 0 and the Survival [1, 4] was 100.00%. The Survivors [1, 4] was 18, the Deaths [1, 5] was 0 and the Survival [1, 5] was 100.00%. It also gave a Survivors [1, 5] of 18, a Deaths [1, 6] of 1 and a Survival [1, 6] of 94.44%. The Survivors [1, 6] was 17, the Deaths [1, 7] was 5 and the Survival [1, 7] was 72.22%. It also gave a Survivors [1, 7] of 13, a Deaths [1, 8] of 3 and a Survival [1, 8] of 83.33%. For the same substance, the Survivors [1, 8] was 15, the Deaths [1, 9] was 2 and the Survival [1, 9] was 88.89%. It also gave a Survivors [1, 9] of 16, a Deaths [1, 10] of 12 and a Survival [1, 10] of 33.33%. The Survivors [1, 10] was 6, the Deaths [1, 11] was 8 and the Survival [1, 11] was 55.56%. It also gave a Survivors [1, 11] of 10, a Deaths [1, 12] of 7 and a Survival [1, 12] of 61.11%. It also gave a Survivors [1, 12] of 11, a Deaths [1, 13] of 14 and a Survival [1, 13] of 22.22%. It also gave a Survivors [1, 13] of 4, a Deaths [1, 14] of 12 and a Survival [1, 14] of 33.33%. It also gave a Survivors [1, 14] of 6, a Deaths [1, 15] of 11 and a Survival [1, 15] of 38.89%. The Survivors [1, 15] was 7, the Deaths [1, 16] was 14 and the Survival [1, 16] was 22.22%. It also gave a Survivors [1, 16] of 4, a Deaths [1, 17] of 12 and a Survival [1, 17] of 33.33%. For the same substance, the Survivors [1, 17] was 6, the Deaths [1, 18] was 11 and the Survival [1, 18] was 38.89%. For the same substance, the Survivors [1, 18] was 7, the “survival after normally lethal i.p. dose of S. aureus” value ([1]; HM897 pretreatment) was “dramatic improvement in survival” and the “Survival” value ([1]; at 36 hours, across HM897 dose groups) was ≤ 61%. The “Survival” value ([1]; by 72 hours, across HM897 dose groups) was 22-39%, the lymphoid cells differentiation [2] was “does not stimulate lymphoid cells differentiation” and the restoration of hemopoiesis ([3]; 5-FU hemodepression, CBA-mice) was “promotes active restoration of hemopoiesis”. For the same substance, the “dose from which the peptide was active” value ([3]; i.p. for 5 days from 4th day after 5-FU 175 mg per kg) was ≥ 0.001 mg/kg.
